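Tested at 5 concentrations; 48 h exposure; 96-well plates; endpoints linearly interpolated, else capped at highest concentration. Abbreviation: GI50, concentration required for 50% inhibition of growth.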 Activity calls are given as the source filed them. Rule as the data show it: active = GI50 up to about 1.1 µM and inactive = higher.
Columns and labels:
Test in all cases: NCI anticancer screen, dose series, 48 h
[1] = tested on: MCF7
[2] = tested on: Malme-3M
[3] = tested on: UACC-257
[4] = tested on: LOX IMVI
[5] = tested on: BT-549
[6] = tested on: OVCAR-8
[7] = tested on: HT-29
[8] = tested on: NCI-H522
[9] = tested on: EKVX
[10] = tested on: ACHN
[11] = tested on: NCI-H23
[12] = tested on: Hs-578T
[13] = tested on: RPMI-8226
[14] = tested on: OVCAR-5
[15] = tested on: SR
[16] = tested on: UACC-62
[17] = tested on: SNB-19
[18] = tested on: SF-295
[19] = tested on: SK-MEL-5
[20] = tested on: A498

Measured: GI50

Nc1cc(Cl)ccc1SSc1ccc(Cl)cc1N
inactive: [1] 3.85 µM | [2] 15.7 µM | [3] 17.6 µM | [4] 3.49 µM | [5] 9.91 µM | [6] 16.6 µM | [7] 16.1 µM | [8] 7.57 µM | [9] 9.55 µM | [10] 9.55 µM | [11] 5.61 µM | [12] 8.79 µM | [13] 3.72 µM | [14] 14.8 µM | [15] 4.32 µM | [16] 2.88 µM | [17] 22.6 µM | [18] 11 µM | [19] 14 µM

COc1ccc(-c2cc3c(nn2)-c2ccccc2C3=O)cc1
inactive: [1] 8.93 µM | [2] > 10 µM | [3] > 10 µM | [4] > 10 µM | [5] > 10 µM | [6] > 10 µM | [7] > 10 µM | [8] > 10 µM | [9] > 10 µM | [10] > 10 µM | [11] > 10 µM | [12] > 10 µM | [13] > 10 µM | [20] > 10 µM | [14] > 10 µM | [16] > 10 µM | [17] > 10 µM | [18] > 10 µM | [19] > 10 µM

C/C(=C\CO)CC[C@@H]1[C@@]2(C)CCCC(C)(C)[C@@H]2CC[C@@]1(C)O
inactive: [1] 17.1 µM | [2] 19.7 µM | [3] 19.5 µM | [4] 16.1 µM | [5] 18.3 µM | [6] 16.2 µM | [7] 21.3 µM | [8] 16.7 µM | [9] 24.8 µM | [10] 34.2 µM | [11] 20.5 µM | [12] 24 µM | [13] 17.2 µM | [20] 17 µM | [14] 23.1 µM | [16] 14.1 µM | [17] 21.3 µM | [18] 17.6 µM | [19] 17.9 µM

NC(=O)c1sc2nc3ccccc3n2c1N
inactive: [1] > 100 µM | [2] > 100 µM | [3] > 100 µM | [4] 36.1 µM | [5] 14.4 µM | [6] 65.8 µM | [7] > 100 µM | [9] 67.5 µM | [10] 59.8 µM | [11] 17.4 µM | [12] 46 µM | [13] > 100 µM | [20] 63.1 µM | [14] > 100 µM | [16] 20 µM | [17] 51.8 µM | [18] 23.8 µM | [19] > 100 µM

CSc1[nH]cnc1C(N)=S
inactive: [1] > 100 µM | [2] > 100 µM | [3] > 100 µM | [4] > 100 µM | [5] > 100 µM | [6] > 100 µM | [7] > 100 µM | [8] > 100 µM | [9] > 100 µM | [10] > 100 µM | [11] > 100 µM | [12] > 100 µM | [13] > 100 µM | [20] > 100 µM | [14] > 100 µM | [16] > 100 µM | [17] > 100 µM | [18] > 100 µM | [19] > 100 µM

Cc1ccc(NC(=O)c2cc(S(=O)(=O)N3CCNNC3=O)c(S)cc2Cl)cc1
inactive: [1] > 100 µM | [2] > 100 µM | [3] > 100 µM | [4] > 100 µM | [5] 28.9 µM | [6] > 100 µM | [8] 26.5 µM | [9] > 100 µM | [10] > 100 µM | [12] > 100 µM | [13] 28.2 µM | [14] > 100 µM | [15] > 100 µM | [16] > 100 µM | [17] > 100 µM | [18] > 100 µM | [19] > 100 µM

Cc1cc2c(cc1Cl)SC(NNC(=O)c1ccco1)=NS2(=O)=O
inactive: [1] > 10 µM | [2] > 10 µM | [3] > 10 µM | [4] > 10 µM | [5] > 10 µM | [6] > 10 µM | [7] > 10 µM | [8] > 10 µM | [9] > 10 µM | [10] > 10 µM | [11] > 10 µM | [12] > 10 µM | [13] > 10 µM | [20] > 10 µM | [14] > 10 µM | [16] > 10 µM | [17] > 10 µM | [18] > 10 µM | [19] > 10 µM

CC(=O)Oc1c(C)cc(-c2cc(C)c(OC(C)=O)c(C)c2)cc1C
inactive: [1] > 100 µM | [2] 89.3 µM | [3] 41.6 µM | [4] 17.2 µM | [5] 10.8 µM | [6] 37.1 µM | [7] 45.4 µM | [8] 24 µM | [9] 37.3 µM | [10] 33 µM | [11] 15.4 µM | [12] 15.7 µM | [13] > 100 µM | [14] 43.7 µM | [15] 75.2 µM | [16] 23 µM | [17] 70.1 µM | [18] 23.7 µM | [19] 25.4 µM

O=C1C=C(O)C(=O)c2c(O)ccc(O)c21
inactive: [1] > 100 µM | [2] 88.5 µM | [3] > 100 µM | [4] > 100 µM | [5] > 100 µM | [6] > 100 µM | [7] 51.9 µM | [8] > 100 µM | [10] > 100 µM | [11] > 100 µM | [12] > 100 µM | [13] > 100 µM | [20] > 100 µM | [14] > 100 µM | [16] > 100 µM | [17] > 100 µM | [18] > 100 µM | [19] > 100 µM

C=C1C(=O)OC2/C=C(\C)C(O)CC(O)C(C)(O)CC(OC(=O)/C(C)=C/C)C12 (centres undefined)
inactive: [1] 56.8 µM | [2] 50 µM | [3] 83.8 µM | [4] 32.3 µM | [5] 26.1 µM | [6] 32.5 µM | [7] 39.6 µM | [8] 28.1 µM | [9] 43.1 µM | [10] 39.2 µM | [11] 46.9 µM | [12] 44.2 µM | [13] 23 µM | [20] 42.2 µM | [14] > 73.8 µM | [16] 33.7 µM | [17] 66.5 µM | [18] 55.1 µM | [19] 36.7 µM

COc1cc(-c2c3c([nH]c(=O)c2C#N)-c2cc([N+](=O)[O-])ccc2CCC3)cc(OC)c1OC
inactive: [1] 17.4 µM | [2] 22.8 µM | [3] 26.9 µM | [4] 15.1 µM | [5] 17.5 µM | [6] 17.8 µM | [7] 37.5 µM | [8] 15.6 µM | [9] 24.4 µM | [10] 21 µM | [11] 17.4 µM | [12] 13.3 µM | [13] 9.08 µM | [20] 14.2 µM | [14] 23.7 µM | [16] 13.3 µM | [17] 30.8 µM | [18] 16.1 µM | [19] 12.9 µM

COC(=O)[C@@H]1[C@H](O)CCC2=C(CC(=O)c3ccoc3)[C@H](C)CC[C@]21C
inactive: [1] 26.4 µM | [2] > 50 µM | [3] 22.9 µM | [4] 27.5 µM | [5] 18.8 µM | [6] 35.8 µM | [7] 44.3 µM | [9] > 50 µM | [10] > 50 µM | [11] 30.3 µM | [12] > 50 µM | [20] > 50 µM | [14] > 50 µM | [16] 25.4 µM | [17] > 50 µM | [18] 31.4 µM | [19] 18.1 µM

Cc1ccc(Nc2n[nH]c(=S)s2)cc1C
inactive: [1] 90.4 µM | [2] > 100 µM | [3] > 100 µM | [4] > 100 µM | [5] > 100 µM | [6] > 100 µM | [7] 57.4 µM | [8] 60.3 µM | [9] > 100 µM | [10] > 100 µM | [11] > 100 µM | [12] > 100 µM | [13] 81.5 µM | [20] 58.7 µM | [14] > 100 µM | [16] > 100 µM | [17] > 100 µM | [18] 79.6 µM | [19] 68.2 µM

CCN(CC)CCC(=O)Nc1ccc2sc3ccccc3c(=O)c2n1
inactive: [1] 13.3 µM | [2] 23.4 µM | [3] 17.3 µM | [4] 14 µM | [5] 15.6 µM | [6] 17.5 µM | [7] 36.7 µM | [8] 14.8 µM | [9] 25.9 µM | [10] 16.3 µM | [11] 17.8 µM | [12] 20.7 µM | [13] 12.1 µM | [14] 18.9 µM | [15] 15.9 µM | [16] 17.7 µM | [17] 16.7 µM | [18] 21.2 µM | [19] 17.9 µM

COc1ccc(-c2oc3ccc(C)cc3c(=O)c2O)cc1
inactive: [1] > 100 µM | [2] > 100 µM | [3] > 100 µM | [4] > 100 µM | [5] > 100 µM | [6] 23.1 µM | [7] > 100 µM | [8] > 100 µM | [9] > 100 µM | [10] 31.9 µM | [11] > 100 µM | [12] > 100 µM | [13] 9.95 µM | [20] > 100 µM | [14] > 100 µM | [16] > 100 µM | [17] 44.4 µM | [18] > 100 µM | [19] > 100 µM

From ChEMBL document CHEMBL1201862, “PubChem BioAssay data set” (2004)
